According to patent publication US9169217B2, “Arylalkyl esters of 4-amino-6-(substituted phenyl)-picolinates and 6-amino-2-(substituted phenyl)-pyrimidinecarboxylates and their use as selective herbicides for crops” (Dow AgroSciences LLC, priority 2011, dated 2015):

Columns and labels:
[1] = test system: Cyperus difformis L. (small-flower flatsedge); assay: Postemergence foliar-applied herbicidal activity in direct seeded rice (Example 16); type: in vivo; conditions: post-emergence, 504 h, rice cropping systems, foliar-applied, 8.75 g ae/ha, 21 DAA, may represent multiple trials, read-out: Visual Injury (%) CYPDI
Excerpt: (§1) Seeds or nutlets of the desired test plant species were planted in a soil matrix prepared by mixing a loam soil (43 percent silt, 19 percent clay, and 38 percent sand, with a pH of about 8.1 and an organic matter content of about 1.5 percent) and river sand in an 80 to 20 ratio. The soil matrix was contained in plastic pots with a surface area of 139.7 cm^2. When required to ensure good germination and healthy plants, a fungicide treatment and/or other chemical or physical treatment was applied. The plants were grown for 10-17 d in a greenhouse with an approximate 14-h photoperiod which was maintained at about 29° C. during the day and 26° C. during the night. Nutrients and water were added on a regular basis and supplemental lighting was provided with overhead metal halide 1000-Watt lamps as necessary. The plants were employed for testing when they reached the second or third true leaf stage.
(§2) Treatments consisted of esters of compounds 1-4, 6-8, 10, 11, 13-16, 20-31, 35, 38, 41 and 42 and A-E. Compound A is methyl 4-amino-3-chloro-6-(4-chloro-3-ethoxy-2-fluorophenyl)-5-fluoropicolinate; compound B is methyl 4-amino-3-chloro-6-(4-cyclopropylphenyl)-5-fluoropicolinate; compound C is methyl 4-amino-3-chloro-6-(2,4-dichloro-3-methoxyphenyl)picolinate; compound D is methyl 6-amino-2-(4-chloro-2-fluoro-3-methoxyphenyl)-5-vinylpyrimidine-4-carboxylate; and compound E is methyl 4-amino-3-chloro-6-(4-chloro-2-fluoro-3-methoxyphenyl)-5-fluoropicolinate. Weighed amounts of technical grade compounds were placed in 25 mL glass vials and dissolved in a volume of 97:3 v/v acetone-DMSO to obtain 12× stock solutions. […] The concentrated stock solutions were added to the spray solutions so that the final acetone and DMSO concentrations were 16.2% and 0.5%, respectively. Spray solutions were diluted to the appropriate final concentrations with the addition of 10 mL of an aqueous mixture of 1.5% (v/v) Agri-dex crop oil concentrate. Generally, multiple concentrations of spray solutions were formulated and tested utilizing the same stock solution. The final spray solutions contained 1.25% (v/v) Agri-dex crop oil concentrate. Compound requirements are based upon a 12 mL application volume at a rate of 187 L/ha. Spray solutions were applied to the plant material with an overhead Mandel track sprayer equipped with 8002E nozzles calibrated to deliver 187 L/ha over an application area of 0.503 square meters (m^2) at a spray height of 18 inches (43 cm) above average plant canopy height. Control plants were sprayed in the same manner with the solvent blank.
(§3) The treated plants and control plants were placed in a greenhouse as described above and watered by sub-irrigation to prevent wash-off of the test compounds. After 3 weeks, the condition of the test plants, compared with that of the untreated plants, was determined visually and scored on a scale of 0 to 100 percent where 0 corresponds to no injury and 100 corresponds to complete kill.
(§4) By applying the well-accepted probit analysis as described by J. Berkson in Journal of the American Statistical […], 48, 565 (1953) and by D. Finney in “Probit Analysis” Cambridge University Press (1952), the data gathered can be used to calculate GR50 and GR80 values, which are defined as growth reduction factors that correspond to the effective dose of herbicide required to kill or control 50 percent or 80 percent, respectively, of a target plant.

[2] = test system: Scirpus juncoides ROXB. (Japanese bulrush); assay: as above; type: in vivo; conditions: Schoenoplectiella juncoides, post-emergence, 504 h; rice cropping systems, foliar-applied, 8.75 g ae/ha, 21 DAA; may represent multiple trials; read-out: Visual Injury (%) SCPJU
Excerpt: as §1, §2, §3, §4

[3] = test system: Scirpus juncoides ROXB. (Japanese bulrush); assay: In-water applied herbicidal activity in transplanted paddy rice (Example 17); type: in vivo; conditions: Schoenoplectiella juncoides, 504 h; rice cropping systems, in-water applied (paddy), 17.5 g ae/ha, 21 DAA; may represent multiple trials; read-out: Visual Injury (%) SCPJU
Description: (§5) Weed seeds or nutlets of the desired test plant species were planted in puddled soil (mud) prepared by mixing a non-sterilized mineral soil (28 percent silt, 18 percent clay, and 54 percent sand, with a pH of about 7.3 to 7.8 and an organic matter content of about 1.0 percent) and water at a ratio of 100 kilograms (kg) of soil to 19 liters (L) of water. The prepared mud was dispensed in 250 mL aliquots into 480 mL non-perforated plastic pots with a surface area of 91.6 cm^2 leaving a headspace of 3 cm in each pot. Rice seeds were planted in Sun Gro MetroMix 306 planting mixture, which typically has a pH of 6.0 to 6.8 and an organic matter content of about 30 percent, in plastic plug trays. Seedlings at the second or third leaf stage of growth were transplanted into 650 mL of mud contained in 960 mL non-perforated plastic pots with a surface area of 91.6 cm^2 four days prior to herbicide application. The paddy was created by filling the 3 cm headspace of the pots with water. When required to ensure good germination and healthy plants, a fungicide treatment and/or other chemical or physical treatment was applied. The plants were grown for 4-14 d in a greenhouse with an approximate 14-h photoperiod which was maintained at about 29° C. during the day and 26° C. during the night. Nutrients were added as Osmocote (17:6:10, Nitrogen:Phosphorus:Potassium (N:P:K)+minor nutrients) at 2 grams (g) per cup. Water was added on a regular basis to maintain the paddy flood, and supplemental lighting was provided with overhead metal halide 1000-Watt lamps as necessary. The plants were employed for testing when they reached the second or third true leaf stage.
(§6) Treatments consisted of esters of compounds 1-4, 6-33, 35-39, 41 and 42 and A-G. Compound A is methyl 4-amino-3-chloro-6-(4-chloro-3-ethoxy-2-fluorophenyl)-5-fluoropicolinate; compound B is methyl 4-amino-3-chloro-6-(4-cyclopropylphenyl)-5-fluoropicolinate; compound C is methyl 4-amino-3-chloro-6-(2,4-dichloro-3-methoxyphenyl)picolinate; compound D is methyl 6-amino-2-(4-chloro-2-fluoro-3-methoxyphenyl)-5-vinylpyrimidine-4-carboxylate; compound E is methyl 4-amino-3-chloro-6-(4-chloro-2-fluoro-3-methoxyphenyl)-5-fluoropicolinate; compound F is methyl 6-amino-2-(4-chloro-2-fluoro-3-methoxyphenyl)-5-methoxypyrimidine-4-carboxylate; and compound G is methyl 4-amino-3-chloro-6-(4-chloro-2-fluoro-3-methoxyphenyl)picolinate. Weighed amounts of technical grade compounds were placed in individual 120 mL glass vials and were dissolved in 20 mL of acetone to obtain concentrated stock solutions. […] The concentrated stock solutions obtained were diluted with 20 mL of an aqueous mixture containing 2.5% Agri-dex crop oil concentrate (v/v). The final application solutions contained 1.25% (v/v) Agri-dex crop oil concentrate. Generally, multiple concentrations were tested utilizing the same stock solution. Applications were made by injecting an appropriate amount of the application solution into the aqueous layer of the paddy. Control plants were treated in the same manner with the solvent blank.
as §3, with “water was added as needed” for “watered by sub-irrigation”, “maintain a paddy flood.” for “prevent wash-off of the test compounds.”, “weeks” for “weeks,”
as §4

[4] = test system: Echinochloa crus-galli (L.) P.BEAUV. (barnyardgrass); assay: as above; type: in vivo; conditions: Echinochloa crus-galli, 504 h, rice cropping systems, in-water applied (paddy), 21 DAA, may represent multiple trials, read-out: Visual Injury (%) ECHCG; for pest or weed control at 17.5 g/ha: 17.5 g ae/ha; for pest or weed control at 35 g/ha: 35 g ae/ha
Description: as §5, §6
as §3, with “water was added as needed” for “watered by sub-irrigation”, “maintain a paddy flood.” for “prevent wash-off of the test compounds.”, “weeks” for “weeks,”
as §4

Row | Compound | melting point | pest or weed control at 8.75 g/ha [1] | pest or weed control at 8.75 g/ha [2] | pest or weed control at 17.5 g/ha [3] | pest or weed control at 17.5 g/ha [4] | pest or weed control at 35 g/ha [4]
1 | COc1c(Cl)ccc(-c2nc(C(=O)OCc3ccc(C(F)(F)F)cc3)c(Cl)c(N)c2F)c1F [Compound 6] | 118 to 119 °C | 100% | 100% | 95% | 60% | –
2 | COc1c(Cl)ccc(-c2nc(C(=O)OC(C)c3ccccc3)c(Cl)c(N)c2F)c1F (stereo not shown) [Compound 14] | – | 95% | 50% | 70% | 10% | –
3 | COc1c(Cl)ccc(-c2nc(C(=O)OCCc3ccccc3)c(Cl)c(N)c2F)c1F [Compound 15] | 84 to 85 °C | 100% | 90% | 70% | 30% | –
4 | COc1c(Cl)ccc(-c2cc(N)c(Cl)c(C(=O)OCc3ccc(Cl)cc3)n2)c1F [Compound 18] | 100 to 108 °C | – | – | – | – | 100%
5 | COc1c(Cl)ccc(-c2cc(N)c(Cl)c(C(=O)OC(C)c3ccccc3)n2)c1F (stereo not shown) [Compound 19] | 110 to 113 °C | – | – | – | – | 90%
6 | COc1c(Cl)ccc(-c2nc(C(=O)OCc3ccc(OC(F)(F)F)cc3)c(Cl)c(N)c2F)c1F [Compound 20, 4-trifluoromethoxybenzyl 4-amino-3-chloro-6-(4-chloro-2-fluoro-3-methoxyphenyl)-5-fluoropicolinate] | – | 100% | 100% | 0% | 50% | –
7 | COC(=O)c1ccccc1COC(=O)c1nc(-c2ccc(Cl)c(OC)c2F)c(F)c(N)c1Cl [Compound 32] | 161 °C | – | – | 100% | 60% | –
8 | COc1c(Cl)ccc(-c2cc(N)c(Cl)c(C(=O)OCCc3ccccc3)n2)c1F [Compound 37] | – | – | – | – | – | 98%

Now from value to molecule, other results behind:

Row | melting point | Compound | pest or weed control at 8.75 g/ha [1] | pest or weed control at 8.75 g/ha [2] | pest or weed control at 17.5 g/ha [3] | pest or weed control at 17.5 g/ha [4] | pest or weed control at 35 g/ha [4]
9 | 143 °C | COc1c(Cl)ccc(-c2nc(C(=O)OCc3ccc(Cl)cc3)c(Cl)c(N)c2F)c1F [Compound 2, 4-chlorobenzyl 4-amino-3-chloro-6-(4-chloro-2-fluoro-3-methoxyphenyl)-5-fluoropicolinate] | 100% | 100% | 99% | 97% | –
10 | 139 °C | COc1c(Cl)ccc(-c2nc(C(=O)OCc3ccc(C)cc3)c(Cl)c(N)c2F)c1F [Compound 3] | 100% | 99% | 99% | 78% | –
11 | 151 °C | COc1c(Cl)ccc(-c2nc(C(=O)OCc3ccc(C#N)cc3)c(Cl)c(N)c2F)c1F [Compound 4] | 80% | 80% | 95% | 95% | –
12 | 183 to 184 °C | COc1ccc(COC(=O)c2nc(-c3ccc(Cl)c(OC)c3F)c(F)c(N)c2Cl)cc1 [Compound 5] | – | – | – | – | –
13 | 135 °C | COc1c(Cl)ccc(-c2nc(C(=O)OCc3ccccc3C)c(Cl)c(N)c2F)c1F [Compound 8] | 99% | 99% | 100% | 100% | –
14 | 183 to 184 °C | COc1c(Cl)ccc(-c2nc(C(=O)OCc3ccccc3Cl)c(Cl)c(N)c2F)c1F [Compound 9] | – | – | 100% | 100% | –
15 | 135 to 136 °C | COc1ccccc1COC(=O)c1nc(-c2ccc(Cl)c(OC)c2F)c(F)c(N)c1Cl [Compound 10] | 100% | 91% | 100% | 70% | –
16 | 150 °C | COc1c(Cl)ccc(-c2nc(C(=O)OCc3cccc(C)c3)c(Cl)c(N)c2F)c1F [Compound 11] | 99% | 97% | 99% | 97% | –
17 | 147 to 148 °C | COc1c(Cl)ccc(-c2nc(C(=O)OCc3cccc(Cl)c3)c(Cl)c(N)c2F)c1F [Compound 12] | – | – | 100% | 100% | –
18 | 164 to 165 °C | COc1cccc(COC(=O)c2nc(-c3ccc(Cl)c(OC)c3F)c(F)c(N)c2Cl)c1 [Compound 13] | 95% | 80% | 98% | 98% | –
19 | 182 °C | COC(=O)c1ccc(COC(=O)c2nc(-c3ccc(Cl)c(OC)c3F)c(F)c(N)c2Cl)cc1 [Compound 16] | 94% | 85% | 99% | 90% | –
